From US11413278B2, “Compounds and methods for promoting stress resistance” (priority 2015, dated 2022)
Like-named read-outs stand apart in the source and are kept apart here.

Experiments:
C. elegans = C. elegans lifespan assays (liquid and plate); assay type: in vivo, Caenorhabditis elegans; conditions: for ILS at 60 µM / ILS at 66 µM: Caenorhabditis elegans; for Extension of C. elegans' lifespan (qualitative): in at least 3 to 4 trials, group range ~10% to ~50%; for O = Life span- extending scores in worms: score scale 0 to 2, 4 to 6 independent trials; for M = Lifespan-extending scores in worms: summary score
WI-38 cells [1] = conditions: for No H2O2 stress treatment, at 10 uM (fold change): normalized ATP measurement
FOXO3 = FOXO3 siRNA knockdown: dependency for H2O2-resistance; assay type: cell-based, human; conditions: for FOXO3-dependency for H2O2-resistance, at 10 uM (experiment 3) - with & without H2O2 / FOXO3-dependency for H2O2-resistance (experiment 3): 10 uM; for FOXO3-dependency for H2O2-resistance (experiment 3): with & without H2O2, FOXO3 knockdown in WI-38 cells, YES = resistance reduced by at least 50%, partial = 25% to 50%
[2] = test system: phosphorylated γH2A.X and TP53BP1; experiment: DNA damage marker analysis (immuno-staining); conditions: for activity at 10 µM: Homo sapiens, WI-38, 24 h; for P = Potential DNA-damaging / R = Potential DNA damaging: human, 24 h
Outline: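 Immunofluorescence read-out for phospho-γH2A.X (Ser-139) and phospho-TP53BP1 (Ser-1778), with DAPI nuclear stain and automated imaging at 10×. WI-38 cells (~8,000 per well) were exposed to small molecules for 24 h after 24 h of culture, with doxorubicin (300 nM, 24 h) or H2O2 (700 μM, 3 h) as positive damage controls.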

WI-38 cells [3] = experiment: Long-term effects on cell viability (5 days, ATP; morphology, PI imaging); assay type: cell-based; conditions: 10 μM; for O = Potential toxicity / Q = Potential toxicity: human, 5 days; for Luminescence signal for ATP measurement, day-1 Average / Luminescence signal for ATP measurement, day-2 Average / Luminescence signal for ATP measurement, day-3 Average / Luminescence signal for ATP measurement, day-4 Average / Luminescence signal for ATP measurement, day-5 Average / viability at 10 µM: Batch 1; for Luminescence signal for ATP measurement, day-1 Average / Luminescence signal for ATP measurement, day-2 Average / Luminescence signal for ATP measurement, day-3 Average / Luminescence signal for ATP measurement, day-4 Average / Luminescence signal for ATP measurement, day-5 Average: n = 6, day-0 luminescence = 320956 ± 24708; for viability at 10 µM: Homo sapiens, WI-38, 120 h, DMSO ctrl = 100.0%, read-out: ATP luminescence by day-5 normalized; for Luminescence signal for ATP measurement, day-5 Average / viability at 10 µM: day-5;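 as to Luminescence signal for ATP measurement, day-2 Average: compounds at 10 µM with ATP read daily over 5 days of treatment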;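 as to Luminescence signal for ATP measurement, day-3 Average: compounds at 10 µM with ATP read daily over 5 days of treatment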;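 as to Luminescence signal for ATP measurement, day-4 Average: compounds at 10 µM with ATP read daily over 5 days of treatment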;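 as to Luminescence signal for ATP measurement, day-5 Average: compounds at 10 µM with ATP read daily over 5 days of treatment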
[4] = 60 μM, in liquid, wild type, with FuDR, 1.0 × 10^9 bacteria/ml, read-out: relative change of mean lifespan vs control, Trial 1
[5] = 60 μM, in liquid, wild type, with FuDR, 2.5 × 10^9 bacteria/ml, read-out: relative change of mean lifespan vs control, Trial 2
[6] = 60 μM, on plate, CF512 temperature-sensitive sterile animals, without FuDR, 2.0 × 10^10 bacteria/ml, read-out: relative change of mean lifespan vs control, Trial 3
[7] = Assay 2(z), 1.0 × 10^9 bacteria/ml, wild type + FuDR (2012 July), read-out: Lifespan assay in liquid
[8] = Assay 3(aa), 2.5 × 10^9 bacteria/ml, wild type + FuDR, read-out: Lifespan assay in liquid
[9] = Assay 4(ab), 2.0 × 10^10 bacteria/ml, CF512 worms, no FuDR, read-out: Lifespan assay on plates
[10] = WI-38 cells, 10 μM, (*) = compromised ability to protect cells from H2O2, could be due to stability issue
[11] = asterisks indicate the loss of the ability to protect cells from H2O2 over time
[12] = derived from dose response curves, 0.6-20 uM, H2O2-resistance of WI-38 cells
[13] = read-out: Est. ED50, dose response 0.6-20 μM, H2O2-resistance
[14] = read-out: Experiment 1, H2A.X-P DNA damage foci staining (no H2O2 stress treatment), at 10 uM
[15] = read-out: Experiment 2, H2A.X-P DNA damage foci staining (no H2O2 stress treatment), at 10 uM
[16] = read-out: Experiment 2, H2A.X-P DNA damage foci staining (under H2O2 stress treatment), at 10 uM
[17] = read-out: Experiment 2, TP53BP1-P DNA damage foci staining (no H2O2 stress treatment), at 10 uM
[18] = read-out: Experiment 2, TP53BP1-P DNA damage foci staining (under H2O2 stress treatment), at 10 uM

With `O=C(/C(=C/c1ccc(Cl)cc1)c1nc2ccccc2[nH]1)c1ccccc1` [Gr-4D] the “relative change of mean lifespan vs control, Trial 6 (confirmative)” value (C. elegans; 60 μM, on plate, temperature-sensitive sterile animals, without FuDR, 1.0 × 10^11 bacteria/ml) was “+11.1%”, the “relative change of mean lifespan vs control, Trial 5 (confirmative)” value (C. elegans; 60 μM, on plate, temperature-sensitive sterile animals, without FuDR, 2.0 × 10^10 bacteria/ml) was “+39.4%” and the “Lifespan, average increase” value (C. elegans; 4 or more trials) was 24.0%. It also gave an ILS at 60 µM (C. elegans; [4]) of 50.8%, an ILS at 60 µM (C. elegans; [5]) of 9% and an ILS at 60 µM (C. elegans; 60 μM, on plate, CF512 temperature-sensitive sterile animals, without FuDR, 1.0 × 10^11 bacteria/ml, read-out: relative change of mean lifespan vs control, Trial 4) of 11.3%. The ILS at 60 µM (C. elegans; [6]) was 22.2%, the ILS at 66 µM (C. elegans; [7]) was 50.8% and the ILS at 66 µM (C. elegans; [8]) was 9%. The ILS at 66 µM (C. elegans; [9]) was 22.2%, the ILS at 66 µM (C. elegans; Assay 5(ac), 1.0 × 10^11 bacteria/ml, CF512 worms, no FuDR, read-out: Lifespan assay on plates) was 11.3% and the ILS at 66 µM (C. elegans; Assay 6(ad), 2.0 × 10^10 bacteria/ml, CF512 worms, no FuDR, read-out: Lifespan assay on plates) was 39.4%. For the same compound, the ILS at 66 µM (C. elegans; Assay 7(ae), 1.0 × 10^11 bacteria/ml, CF512 worms, no FuDR, read-out: Lifespan assay on plates) was 11.1%, the “Lifespan extension of C. elegans” value (C. elegans; across independent trials) was no more than 50% and the “Extension of C. elegans' lifespan (qualitative)” value (C. elegans) was “could extend animal's lifespan”. The “Trials with lifespan extension” value (C. elegans; positive of total trials) was 4 of 4, the “O = Life span- extending scores in worms” value (C. elegans) was 2 (2 for observed in more than 2 trials) and the “M = Lifespan-extending scores in worms” value (C. elegans) was 2 (2 for observed in more than 2 trials). For the same compound, the “Lifespan, mean (FIG. 6B)” value (C. elegans; temperature-sensitive sterile rollers, on plate, without FuDR, 25° C. then ~22° C., control 18.4±0.4) was 22.5±0.4, the “Lifespan increase (FIG. 6A)” value (C. elegans; wild-type, in liquid, with FuDR, 20° C., ~60 μM) was roughly 51.2% and the “Lifespan, mean±SD (FIG. 6A)” value (C. elegans; wild-type, in liquid, with FuDR, 20° C., ~60 μM, control 21.1±0.5) was 31.9±1.1. For the same compound, the H2O2-resistant (WI-38 cells [1]; [10]) was “YES”, the “No H2O2 stress treatment, at 10 uM (fold change)” value (WI-38 cells [1]; WI-38 cells) was 1.11 fold change and the “Assay 1: H2O2-resistant” value (WI-38 cells [1]; YES/NO, if NO, possibly due to repeated freezing/thawing of stocks) was “YES”. For the same compound, the H2O2-resistant (WI-38 cells [1]; [11]) was “YES”, the EC50 (WI-38 cells [1]; [12]) was 10.6 µM and the EC50 (WI-38 cells [1]; [13]) was 8.9 µM. For the same compound, the “FOXO3-dependency for H2O2-resistance, at 10 uM (experiment 3) - with & without H2O2” value (FOXO3) was “Partial”, the “FOXO3-dependency for H2O2-resistance (experiment 3)” value (FOXO3) was “Partial” and the “Requirement of FOXO3 to promote H2O2-resistance” value (FOXO3; FOXO3 siRNA, at least 2 of 3 independent experiments) was “not FOXO3”. The “I = FOXO3-dependency for H2O2-resistance” value (FOXO3; score) was 0, the “I = FOXO3-dependency for H2O2-resistance” value (FOXO3; summary score) was 0 and the activity at 10 µM [2, 14] was 103%. The activity at 10 µM [2, 15] was 49.6%, the activity at 10 µM [2, 16] was 123% and the activity at 10 µM [2, 17] was 136%. For the same compound, the activity at 10 µM [2, 18] was 388%, the “P = Potential DNA-damaging” value [2] was 0 and the “R = Potential DNA damaging” value [2] was 0. The “O = Potential toxicity” value (WI-38 cells [3]) was 0 and the “Q = Potential toxicity” value (WI-38 cells [3]) was 0.

In the case of `COc1ccc(/C=C2\SC(=N)N(c3nccs3)C2=O)cc1` [O21], the ILS at 60 µM (C. elegans; [4]) is reported as 7.9%, the ILS at 60 µM (C. elegans; [5]) is reported as -0.5% and the ILS at 60 µM (C. elegans; [6]) is reported as 12.2%. The ILS at 66 µM (C. elegans; [7]) was 7.9%, the ILS at 66 µM (C. elegans; [8]) was -0.5% and the ILS at 66 µM (C. elegans; [9]) was 12.2%. The “O = Life span- extending scores in worms” value (C. elegans) was 0, the “M = Lifespan-extending scores in worms” value (C. elegans) was 0 and the H2O2-resistant (WI-38 cells [1]; [10]) was “YES”. For the same compound, the “No H2O2 stress treatment, at 10 uM (fold change)” value (WI-38 cells [1]; WI-38 cells) was 0.92 fold change, the H2O2-resistant (WI-38 cells [1]; [11]) was “YES” and the EC50 (WI-38 cells [1]; [12]) was 18.1 µM. For the same compound, the EC50 (WI-38 cells [1]; [13]) was 18.1 µM, the “FOXO3-dependency for H2O2-resistance, at 10 uM (experiment 3) - with & without H2O2” value (FOXO3) was “YES” and the “FOXO3-dependency for H2O2-resistance (experiment 3)” value (FOXO3) was “YES”. The “I = FOXO3-dependency for H2O2-resistance” value (FOXO3; score) was 0, the “I = FOXO3-dependency for H2O2-resistance” value (FOXO3; summary score) was 0 and the activity at 10 µM [2, 14] was 161%. It also gave an activity at 10 µM [2, 15] of 216%, an activity at 10 µM [2, 16] of 127% and an activity at 10 µM [2, 17] of 196%. For the same compound, the activity at 10 µM [2, 18] was 620%, the “P = Potential DNA-damaging” value [2] was 1 and the “R = Potential DNA damaging” value [2] was 1. For the same compound, the “Luminescence signal for ATP measurement, day-1 Average” value (WI-38 cells [3]) was 460366, the “Luminescence signal for ATP measurement, day-2 Average” value (WI-38 cells [3]) was 542268 and the “Luminescence signal for ATP measurement, day-3 Average” value (WI-38 cells [3]) was 557236. The “Luminescence signal for ATP measurement, day-4 Average” value (WI-38 cells [3]) was 677875, the “Luminescence signal for ATP measurement, day-5 Average” value (WI-38 cells [3]) was 550651 and the viability at 10 µM (WI-38 cells [3]) was 53.6%. The “O = Potential toxicity” value (WI-38 cells [3]) was 1 and the “Q = Potential toxicity” value (WI-38 cells [3]) was 1.

`CCCC(=O)Nc1ccc(-c2cn3cccc(C)c3n2)cc1` [O12] gave an ILS at 60 µM (C. elegans; [4]) of 36.8%, an ILS at 60 µM (C. elegans; [5]) of 9.6% and an ILS at 60 µM (C. elegans; [6]) of 6.6%. It also gave an ILS at 66 µM (C. elegans; [7]) of 36.8%, an ILS at 66 µM (C. elegans; [8]) of 9.6% and an ILS at 66 µM (C. elegans; [9]) of 6.6%. The “Extension of C. elegans' lifespan (qualitative)” value (C. elegans) was “could extend animal's lifespan”, the “O = Life span- extending scores in worms” value (C. elegans) was 2 (2 for observed in more than 2 trials) and the “M = Lifespan-extending scores in worms” value (C. elegans) was 2 (2 for observed in more than 2 trials). For the same compound, the H2O2-resistant (WI-38 cells [1]; [10]) was “YES”, the “No H2O2 stress treatment, at 10 uM (fold change)” value (WI-38 cells [1]; WI-38 cells) was 1.01 fold change and the H2O2-resistant (WI-38 cells [1]; [11]) was “YES”. For the same compound, the EC50 (WI-38 cells [1]; [12]) was 1 µM, the EC50 (WI-38 cells [1]; [13]) was 1 µM and the “I = FOXO3-dependency for H2O2-resistance” value (FOXO3; score) was 0. The “I = FOXO3-dependency for H2O2-resistance” value (FOXO3; summary score) was 0, the activity at 10 µM [2, 14] was 106% and the activity at 10 µM [2, 15] was 88%. The activity at 10 µM [2, 16] was 113%, the activity at 10 µM [2, 17] was 142% and the activity at 10 µM [2, 18] was 523%. The “P = Potential DNA-damaging” value [2] was 0, the “R = Potential DNA damaging” value [2] was 0 and the “Luminescence signal for ATP measurement, day-1 Average” value (WI-38 cells [3]) was 527095. For the same compound, the “Luminescence signal for ATP measurement, day-2 Average” value (WI-38 cells [3]) was 702483, the “Luminescence signal for ATP measurement, day-3 Average” value (WI-38 cells [3]) was 876448 and the “Luminescence signal for ATP measurement, day-4 Average” value (WI-38 cells [3]) was 1128385. For the same compound, the “Luminescence signal for ATP measurement, day-5 Average” value (WI-38 cells [3]) was 1117938, the viability at 10 µM (WI-38 cells [3]) was 109% and the “O = Potential toxicity” value (WI-38 cells [3]) was 0. The “Q = Potential toxicity” value (WI-38 cells [3]) was 0.
